Results taken from ChEMBL document CHEMBL3046892, “Sensitivity difference to insecticides of a riverine caddisfly, Cheumatopsyche brevilineata (Trichoptera: Hydropsychidae), depending on the larval stages and strains” (J Pestic Sci, 2009).
In brackets after ≈: the same amount, converted by molar mass.

Tests used:
Cheumatopsyche [1] = assay: Insecticidal activity against fifth-instar larvae of Cheumatopsyche brevilineata K after 48 hr; format: functional, organism-based
Cheumatopsyche [2] = assay: Insecticidal activity against fifth-instar larvae of Cheumatopsyche brevilineata M after 48 hr; format: functional, organism-based
Cheumatopsyche [3] = assay: Insecticidal activity against first-instar larvae of Cheumatopsyche brevilineata M after 48 hr; format: functional, organism-based
Cheumatopsyche [4] = assay: Insecticidal activity against first-instar larvae of Cheumatopsyche brevilineata K after 48 hr; format: functional, organism-based
Cheumatopsyche [5] = assay: Ratio of EC50 for fifth-instar larvae of Cheumatopsyche brevilineata K to EC50 for first instar larvae of Cheumatopsyche brevilineata K; format: functional
Cheumatopsyche [6] = assay: Ratio of EC50 for fifth-instar larvae of Cheumatopsyche brevilineata M to EC50 for first instar larvae of Cheumatopsyche brevilineata M; format: functional
Cheumatopsyche [7] = assay: Insecticidal activity against first to fifth instar larvae of Cheumatopsyche brevilineata K after 48 hr; format: functional, organism-based

Row | SMILES | EC50 (Cheumatopsyche [1]) [µg/mL] | EC50 (Cheumatopsyche [2]) [µg/mL] | EC50 (Cheumatopsyche [3]) [µg/mL] | EC50 (Cheumatopsyche [4]) [µg/mL] | Ratio EC50 (Cheumatopsyche [5]) | Ratio EC50 (Cheumatopsyche [6]) | EC50 (Cheumatopsyche [7]) [µg/mL]
1 | COP(=S)(OC)Oc1ccc([N+](=O)[O-])c(C)c1 [FENITROTHION] | 0.741 (≈ 2.67 µM) | 0.0265 (≈ 0.0956 µM) | 0.00623 (≈ 0.0225 µM) | 0.0261 (≈ 0.0941 µM) | 28.4 | 4.3 | 
2 | CCC(C)c1ccccc1OC(=O)NC (stereo not given) [FENOBUCARB] | 0.291 (≈ 1.4 µM) | 0.0919 (≈ 0.443 µM) | 0.00948 (≈ 0.0457 µM) | 0.00789 (≈ 0.0381 µM) | 36.9 | 10.3 | 
3 | O=[N+]([O-])/N=C1\NCCN1Cc1ccc(Cl)nc1 [IMIDACLOPRID] |  | 0.0379 (≈ 0.148 µM) | 0.00664 (≈ 0.026 µM) |  |  |  | 0.00654 (≈ 0.0256 µM)
